# Laboratory results published in ChEMBL document CHEMBL1201862, “PubChem BioAssay data set” (2004).
#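 These data come from cells grown in 96-well plates and exposed to compound for 48 hours at five concentrations. At the GI50, growth is halved.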 Active and inactive are the calls of the source. Cut-off read from the data, not from the text of the source: active = GI50 up to about 1.1 µM and inactive = higher.
# Legend:
# Assay in all cases: NCI anticancer screen, dose series, 48 h
# [1] = system: DMS-114
# [2] = system: DMS-273
# [3] = system: HOP-18
# [4] = system: KM-20L2
# [5] = system: LXFL 529
# [6] = system: M19-MEL
# [7] = system: SNB-78
# [8] = system: RXF 631
# [9] = system: XF498
SMILES,GI50 [1],GI50 [2],GI50 [3],GI50 [4],GI50 [5],GI50 [6],GI50 [7],GI50 [8],GI50 [9]
O=C(O)c1c[nH]c2c(ccc3ncccc32)c1=O,> 100 µM (inactive),> 100 µM (inactive),> 100 µM (inactive),> 100 µM (inactive),> 100 µM (inactive),> 100 µM (inactive),> 100 µM (inactive),,
COc1cc(C(N)=O)c(OC)c(OC)c1OC,> 100 µM (inactive),> 100 µM (inactive),,> 100 µM (inactive),> 100 µM (inactive),> 100 µM (inactive),> 100 µM (inactive),> 100 µM (inactive),
CN1CCn2c(Br)ccc2C1=O,,> 100 µM (inactive),,> 100 µM (inactive),> 100 µM (inactive),> 100 µM (inactive),> 100 µM (inactive),,> 100 µM (inactive)
CCOC(=O)C(=O)Nc1c(C(C)C)cccc1C(C)C,> 100 µM (inactive),> 100 µM (inactive),> 100 µM (inactive),> 100 µM (inactive),> 100 µM (inactive),> 100 µM (inactive),> 100 µM (inactive),> 100 µM (inactive),54.6 µM (inactive)
CC(=O)OCC1OC(OC2C(CSC3OC(COC(C)=O)C(OC(C)=O)C(OC(C)=O)C3OC(C)=O)OC(OC(C)=O)C(OC(C)=O)C2OC(C)=O)C(OC(C)=O)C(OC(C)=O)C1OC(C)=O (configuration not stated),> 100 µM (inactive),> 100 µM (inactive),,> 100 µM (inactive),> 100 µM (inactive),> 100 µM (inactive),> 100 µM (inactive),,> 100 µM (inactive)
COc1c(Cl)cc(NC(=S)C#N)cc1Cl,15.6 µM (inactive),30.3 µM (inactive),8.53 µM (inactive),20.1 µM (inactive),22.2 µM (inactive),19.5 µM (inactive),26.7 µM (inactive),19.7 µM (inactive),
O=S1(=O)CSc2ccc3ccccc3c2-c2c1ccc1ccccc21,> 100 µM (inactive),> 100 µM (inactive),> 100 µM (inactive),,> 100 µM (inactive),> 100 µM (inactive),> 100 µM (inactive),> 100 µM (inactive),> 100 µM (inactive)
CN(C)CC1CCCC/C1=N/O (configuration not stated),> 100 µM (inactive),> 100 µM (inactive),> 100 µM (inactive),> 100 µM (inactive),> 100 µM (inactive),> 100 µM (inactive),> 100 µM (inactive),> 100 µM (inactive),
CCOC(=O)C1(c2ccccc2)CCCNCC1 (configuration not stated),,57.1 µM (inactive),> 100 µM (inactive),> 100 µM (inactive),> 100 µM (inactive),> 100 µM (inactive),> 100 µM (inactive),,
O=C(NS(=O)(=O)c1ccccc1)C(Cc1ccccc1)C(Cc1ccccc1)C(=O)NS(=O)(=O)c1ccccc1 (configuration not stated),> 100 µM (inactive),> 100 µM (inactive),> 100 µM (inactive),> 100 µM (inactive),> 100 µM (inactive),> 100 µM (inactive),,,
Cc1nc2cc3nc4ccccc4c(O)c3cc2s1,> 100 µM (inactive),> 100 µM (inactive),16.7 µM (inactive),> 100 µM (inactive),> 100 µM (inactive),> 100 µM (inactive),> 100 µM (inactive),,> 100 µM (inactive)
NC(=S)N/N=C1\C(=O)N(c2cccc([N+](=O)[O-])c2)C(=O)C1C(=O)Nc1cccc([N+](=O)[O-])c1 (configuration not stated),> 100 µM (inactive),> 100 µM (inactive),65.3 µM (inactive),> 100 µM (inactive),> 100 µM (inactive),> 100 µM (inactive),> 100 µM (inactive),,
O=C(Cc1nc2ccccc2c(=O)n1-c1ccccc1Cl)c1ccncc1,> 100 µM (inactive),> 100 µM (inactive),> 100 µM (inactive),> 100 µM (inactive),> 100 µM (inactive),> 100 µM (inactive),> 100 µM (inactive),> 100 µM (inactive),
CC(=O)/C(=C\C1=CCCO1)C(=O)Nc1ccccc1C,> 100 µM (inactive),,> 100 µM (inactive),,> 100 µM (inactive),> 100 µM (inactive),> 100 µM (inactive),> 100 µM (inactive),> 100 µM (inactive)
Cc1ccc(S(=O)(=O)C2c3nc4ccccc4cc3-c3nc4ccccc4nc32)cc1 (configuration not stated),> 100 µM (inactive),> 100 µM (inactive),,> 100 µM (inactive),> 100 µM (inactive),> 100 µM (inactive),67 µM (inactive),,> 100 µM (inactive)
Nc1c(S(=O)(=O)c2ccc(Cl)cc2)c2nc3ccccc3nc2n2ccnc12,54 µM (inactive),82 µM (inactive),22.8 µM (inactive),,> 100 µM (inactive),> 100 µM (inactive),> 100 µM (inactive),,65.8 µM (inactive)
CC1OC(OC2C(OC(=O)[C@]34CCC(C)(C)CC3C3=CCC5[C@@]6(C)C[C@H](O)[C@H](OC7OC(COC8OC(CO)C(O)C(O)C8O)C(O)C(O)C7O)[C@@](C)(C(=O)O)C6CC[C@@]5(C)C3(C)CC4)OCC(O)C2O)C(O)C(O)C1OC1OCC(O)C(O)C1O (some centres not stated),> 100 µM (inactive),> 100 µM (inactive),> 100 µM (inactive),> 100 µM (inactive),,> 100 µM (inactive),> 100 µM (inactive),,
O=[N+]([O-])c1cc(I)cc(/C=N/NS(=O)(=O)c2ccc(F)cc2)c1O,24.2 µM (inactive),21.5 µM (inactive),19.7 µM (inactive),29.8 µM (inactive),20.7 µM (inactive),31.2 µM (inactive),23.3 µM (inactive),23.7 µM (inactive),
CCC1C(=O)OCc2c1cc1n(c2=O)CCC12OCCO2 (configuration not stated),> 100 µM (inactive),> 100 µM (inactive),,> 100 µM (inactive),> 100 µM (inactive),> 100 µM (inactive),> 100 µM (inactive),,> 100 µM (inactive)
CC(C)(C)CC(C)(C)c1ccc(OCCOCC[N+](C)(C)Cc2ccccc2)cc1 [BENZETHONIUM CHLORIDE],1.15 µM (inactive),1.44 µM (inactive),2.79 µM (inactive),3.89 µM (inactive),1.32 µM (inactive),1.53 µM (inactive),1.63 µM (inactive),11.9 µM (inactive),0.377 µM (active)
CC(=O)CCn1ncc(Cl)c(Cl)c1=O,,17.7 µM (inactive),16.6 µM (inactive),16.5 µM (inactive),13.4 µM (inactive),4.92 µM (inactive),19.8 µM (inactive),,19.7 µM (inactive)
O=[N+]([O-])c1ccc(-c2csc(=[N+]3CCCCC3)s2)cc1,2.13 µM (inactive),28.8 µM (inactive),> 100 µM (inactive),6.1 µM (inactive),5.93 µM (inactive),10.7 µM (inactive),44.1 µM (inactive),87.5 µM (inactive),19.5 µM (inactive)
